Data as given in patent US11124536B2, “Uridine nucleoside derivatives, compositions and methods of use” (Tufts University, priority 2013, dated 2021).
“Also recorded” adds a separate entry of the source.

How the values were obtained:
PSAPP mice [1] = assay: Postmortem immunohistochemistry of amyloid beta plaque load in cortex and hippocampus; assay type: in vivo
Method: Mice were perfused transcardially with 4% paraformaldehyde and 40 μm Coronal sections were collected. Sections were sequentially incubated in 0.3% H2O2 for 10 minutes, blocking solution for 2 hrs, blocking solution containing the primary antibody (rabbit anti-beta1-42; rabbit anti-beta1-40, from Chemicon International and rat anti-CD45) for 48 hours at 4° C., and blocking solution containing biotinylated antibody or fluorescently-labeled antibody for 2 hours at room temperature. Sections were visualized in a bright field microscope or a confocal microscope, and the optical density was obtained using MetaMorph software.
To generate these graphs showing plaque load, mice were euthanized, brain sections cut and antibodies directed against Aβ 42 were used to disclose Aβ plaques. Images were acquired digitally and an algorithm was applied to threshold the image so that plaques were isolated from the background. The algorithm then calculated the percent area of the field of view occupied by the plaques.
Brain samples were collected for Abeta analysis with immunostaining. Brains samples were collected after transcardial perfusion with phosphate buffer and 4% paraformaldehyde. Floating brain sections (40 micron) were collected using a microtome. Immunostaining for Aβ40 and Aβ42 were performed according to previously established protocol. Images with DAB staining were collected with brightfield microscopy and analyzed with ImageJ Macro. All data analysis and statistics were performed in GraphPad Prism 6.0.

PSAPP mice [2] = assay: Contextual fear conditioning test (freezing %); assay type: in vivo
Method: On day one, animals were trained in a fear conditioning apparatus for a total of 7 minutes with a two-pairing paradigm of cue and mild foot shock (a 30-s acoustic-conditioned stimulus, 80 dB; a 2-s shock stimulus, 0.5 mA). To evaluate contextual fear learning, the animals were returned to the training context 24 hours post-training, and freezing behavior was scored for 5 minutes. Freezing behavior was monitored by MotorMonitor (Hamilton Kinder) and scored every 5 seconds.
This represents a decrease in the cognitive impairment observed in the untreated mice.

P2Y6 receptor = target: T1, P2Y6 receptor (Homo sapiens, UniProt Q15077); assay: Activation of P2Y6 receptor: receptor-induced Ca2+ changes with fluo-4; assay type: cell-based
T1 construct: expressed in transfected cells; host or cells: 1321N1 human astrocytoma cells
Method: Synthetic ligands were tested for activation of P2Y6 receptor by measuring receptor induced Ca^2+ changes with the fluorescent Ca^2+ indicator fluo-4. 1321N1 human astrocytoma cell lines either expressing P2Y2, P2Y4 or P2Y6 receptors were plated into 24-well plates. Two days after plating, fluorometric measurements were made and responses of cells to a serial dilution of ligands were determined. P2Y6 receptor mediated Ca^2+ fluorescent change was determined by normalized accumulation of fluorescent change of 3 timepoints after ligand administration subtracted by value from ACSF control. Changes in fluorescent intensity were plotted corresponding to ligand concention in GraphPad. Dose-response curve and EC50 for each ligand was estimated using nonlinear curve fit and Sigmoidal dose-response analysis. […]
Synthetic ligands were tested for activation of P2Y6 receptor by measuring receptor induced Ca^2+ changes with the fluorescent Ca^2+ indicator fluo-4, and results are shown in FIG. 10(A)-(K). […] Two days after plating, fluorometric measurements were made and responses of cells to a serial dilution of ligands were determined. P2Y6 receptor mediated Ca^2+ fluorescent change was determined by normalized accumulation of fluorescent change of 3 timepoints after ligand administration subtracted by value from ACSF control. […]

human THP-1 cells = assay: Cytokine release from THP-1 cells into culture medium (multiplex cytokine analysis); assay type: cell-based
Method: THP-1 cells, a human cell line derived from monocytes, were treated in vitro with vehicle, the P2Y6 receptor antagonist MRS 2578, or compound 5, singly or in combination. THP-1 cells were seeded in 24 well plates at a density of 4×10^5 cells/well in culture medium for 24 hours. Thereafter, vehicle, compound 5, or MRS 2578 (singly or in combination) were added to the cultures for 24 hours. Subsequently the culture medium was aspirated and subjected to multiplex cytokine analysis. Data are presented as means+/−sem. MRS 2578 has a molecular weight of about 472 and is also described using CAS number 711019-86-2.

PSAPP mice [3] = assay: Two-photon in vivo imaging of methoxyX04-labeled amyloid plaques in barrel cortex; details: UDP vs ACSF
Excerpt: In this study, PSAPP mice were anesthetized using isoflurane and a thin-skull preparation was used to minimize the surface damage. Amyloid plaques were visualized with methoxyX04 labeling and blood plasma was labeled with Rhodamine dextran to facilitate re-localization of the same imaging area. Stack images were obtained using a two-photon system (Prairie Technologies) with excitation at 850 nm. The emission was detected by external photomultiplier tubes (525/70; DLCP 575; 607/45 nm).
Animals were anesthetized and immobilized in a stereotaxic frame. For each injection, 1 μl of 10 mM UDP or other suitable compounds in artificial cerebrospinal fluid (ACSF) as the vehicle were injected intraventricularly using the following coordinates: AP 0.2 mm, ML 1 mm, and DV 2.2 mm.
To evaluate the effect of UDP on plaque burden, two-photon microscopy was used to assess the amyloid plaques in the barrel cortex in living PSAPP mice. Amyloid plaques were stained by systemically administered methoxy-X04. One day prior to imaging, PSAPP mice were injected with methoxyX04 to label the amyloid plaques. On the imaging day, to facilitate the re-location of the same imaging area, blood plasma was labeled with Rhodamine dextran. Images were obtained from the same start- and end-point to ensure the same image volume. […]

PSAPP mice [4] = assay: Hippocampal long-term potentiation (LTP) recording, CA1; assay type: in vivo
Method: Hippocampal slices (350 μm thick) were prepared from 6-month-old PSAPP mice. Baseline responses were obtained every 10 seconds and Input-output (I/O) curves, paired-pulse modification and LTP were successively measured. The stimulation intensity was set to a level that gives a value of 30% of the maximum obtained. LTP were induced by high frequency stimulation (HFS, 100 pulses at 100 Hz, four times) or by theta-burst stimulation (TBS, 10 bursts at 5 Hz, repeated 10 times in 15 s intervals).
Accumulated evidence has shown that amyloid peptides naturally secreted or isolated from Alzheimer's brains impair synaptic plasticity, especially hippocampal long-term potentiation (Walsh et al., 2002). Therefore, we further performed LTP recordings in PASPP mice and investigated whether P2Y6 receptor-mediated plaque clearance affects synaptic plasticity. […] First, it was observed that LTP at the schaffer collateral synapse within the CA1 region was depressed in PSAPP mice, as compared with littermates (FIG. 8(A)).

T1 sequence (Q15077 whole entry): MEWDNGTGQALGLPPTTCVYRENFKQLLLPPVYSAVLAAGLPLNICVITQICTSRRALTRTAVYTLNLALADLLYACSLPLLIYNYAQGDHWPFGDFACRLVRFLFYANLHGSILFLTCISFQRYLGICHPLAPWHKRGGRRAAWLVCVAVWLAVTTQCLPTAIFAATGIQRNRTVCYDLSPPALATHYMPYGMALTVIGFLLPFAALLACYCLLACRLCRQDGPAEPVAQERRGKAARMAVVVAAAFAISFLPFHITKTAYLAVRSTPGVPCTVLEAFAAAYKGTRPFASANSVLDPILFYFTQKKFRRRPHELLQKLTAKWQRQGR

O=C(Cn1c(=O)ccn([C@@H]2O[C@H](COP(=O)(O)OP(=O)(O)O)[C@@H](O)[C@H]2O)c1=O)c1ccccc1 [3-phenacyl-UDP, reference compound]
effects on the efficacy endpoint at the higher dose (PSAPP mice [1]; 1 mg/kg, one week of daily treatment): smaller effects
β1-40 staining after treatment stopped (PSAPP mice [1]; 6 consecutive days i.p. then stopped for 2 weeks (6+2 weeks group), level still lower than saline vehicle): rebounded
immunoreactivity of β1-40 in cortex (PSAPP mice [1]; i.p. for 4 and 6 consecutive days, FIG. 6A): significantly decreased
immunoreactivity of β1-40 in hippocampus (PSAPP mice [1]; i.p. for 4 and 6 consecutive days, FIG. 6B): significantly decreased
total freezing percentage in context test (PSAPP mice [2]; chronic injection, two different doses): increased
memory deficit (contextual fear conditioning) compared to vehicle (PSAPP mice [2]; one week treatment with 1 μg/kg, FIG. 9C): rescued the memory deficit

O=c1ccn([C@@H]2O[C@H](COP(=O)(O)OP(=O)(O)O)[C@@H](O)[C@H]2O)c(=O)n1Cc1noc2ccccc12
elevating Ca2+ levels in cells expressing P2Y6 receptors (P2Y6 receptor; 1321N1 human astrocytoma cells expressing P2Y6): only effective

S=C=Nc1cccc(NC(=S)NCCCCNC(=S)Nc2cccc(N=C=S)c2)c1 [MRS 2578]
effect of antagonist on Ca2+ signals elevated by the sodium salt of the diphosphate derivative of compound 5 (P2Y6 receptor; P2Y6 receptor expressing 1321N1 cells): attenuated
release of fractalkine, PDGF-BB, and IL-7 (concentration in culture medium) (human THP-1 cells; 24 hours treatment vs vehicle, FIG. 25): increased
release of IL-7 from human THP-1 cells (human THP-1 cells; MRS 2578 alone, 24 hours, FIG. 26): increased
effect of co-treatment on the decrease of IL-7/cytokine release caused by compound 5 (human THP-1 cells; compound 5 plus MRS 2578, FIG. 26): blocked; also recorded: abrogated

O=c1ccn([C@@H]2O[C@H](COP(=O)(O)OP(=O)(O)O)[C@@H](O)[C@H]2O)c(=O)[nH]1 [UDP, uridine diphosphate]
day 4/day 1 ratios of plaque load (PSAPP mice [3]; FIG. 2D): significant reductions
number of plaques (day 4/day 1 ratios) (PSAPP mice [3]; FIG. 2E): significant reductions
decrease in plaque load in the cortex, β1-42 antibody (PSAPP mice [1]; acute UDP i.c.v., P<0.01): 48%
decrease in plaque load in the hippocampus, β1-42 antibody (PSAPP mice [1]; acute UDP i.c.v., P<0.05): 47%
decrease in plaque load in the hippocampus, β1-40 antibody (PSAPP mice [1]; acute UDP i.c.v., p<0.01): 62%
decrease in plaque load in the cortex, β1-40 antibody (PSAPP mice [1]; acute UDP i.c.v., p<0.05): 60%
freezing behavior compared to ACSF treatment (PSAPP mice [2]; UDP-treatment 3 days prior to the test, FIG. 7C): significantly improved
LTP deficit at schaffer collateral synapse, CA1 (PSAPP mice [4]; acute UDP vs ACSF, HFS, FIG. 8B): reversed
field excitatory postsynaptic potential (fEPSP), last 15 min potentiation (PSAPP mice [4]; acute UDP, comparable to littermates, FIG. 8C): significant increase
